Measurements taken from a compilation of properties of binary mixtures (doi:10.1021/acs.jpcb.5b11900).

Test: xn = mol fraction of the nth substance listed
Conditions: 101 kPa

CCC[NH3+].O=[N+]([O-])[O-] + CCCC[NH3+].O=[N+]([O-])[O-]
x1 = 0.5
Conditions	electrical conductivity [S/m]	viscosity [mPa·s]
298.15 K	0.606	80.6
303.15 K	0.729	65.7
308.15 K	0.866	54.2
318.15 K	1.18	38.3
333.15 K	–	24.4
338.15 K	–	21.3
348.15 K	–	16.7
353.15 K	–	14.9

CC[NH3+].O=[N+]([O-])[O-] + CC[N+](CC)(CC)CC.O=[N+]([O-])[O-]
x2 = 0
Conditions	electrical conductivity [S/m]	viscosity [mPa·s]
293.15 K	1.93	43.5
298.15 K	2.25	36.5
303.15 K	2.6	31
308.15 K	2.97	26.5
313.15 K	3.37	22.8
318.15 K	3.78	20
323.15 K	4.22	17.6
328.15 K	–	15.6
333.15 K	–	13.8
343.15 K	–	11.2
348.15 K	–	10.2
353.15 K	–	9.2

CC[NH3+].O=[N+]([O-])[O-] + CC[NH2+]CC.O=[N+]([O-])[O-]
x2 = 0
Conditions	electrical conductivity [S/m]	viscosity [mPa·s]
288.15 K	1.62	–
293.15 K	1.93	43.5
298.15 K	2.25	36.5
303.15 K	2.6	31
308.15 K	2.97	26.5
313.15 K	3.37	22.8
318.15 K	3.78	20
328.15 K	–	15.6
338.15 K	–	12.5
348.15 K	–	10.2
353.15 K	–	9.21

CCCC[NH3+].O=[N+]([O-])[O-] + CC[NH3+].O=[N+]([O-])[O-]
Conditions	electrical conductivity, x2 = 0.25 [S/m]	electrical conductivity, x2 = 0.5 [S/m]	electrical conductivity, x2 = 0.75 [S/m]	viscosity, x2 = 0.25 [mPa·s]	viscosity, x2 = 0.5 [mPa·s]	viscosity, x2 = 0.75 [mPa·s]
288.15 K	–	0.646	–	–	–	–
293.15 K	0.507	0.792	1.2	104.4	82.3	62
298.15 K	0.615	0.951	1.43	83.7	66.6	50.6
303.15 K	0.742	1.13	–	68.1	54.7	–
308.15 K	–	1.33	1.95	–	45.6	35.5
313.15 K	1.03	1.54	2.24	47	38.5	30.6
318.15 K	1.2	1.77	2.55	39.5	32.7	26
323.15 K	–	2.02	2.88	–	28.1	22.6
328.15 K	–	–	–	29	24.4	19.8
333.15 K	–	–	–	–	21.3	17.6
338.15 K	–	–	–	–	18.7	–
343.15 K	–	–	–	–	16.6	13.8
348.15 K	–	–	–	17.2	14.8	12.4
353.15 K	–	–	–	–	–	11.3

CCC[NH3+].O=[N+]([O-])[O-] + CC[NH3+].O=[N+]([O-])[O-]
x2 = 0.5
Conditions	electrical conductivity [S/m]	viscosity [mPa·s]
288.15 K	0.991	–
298.15 K	1.42	53
308.15 K	1.93	37.1
313.15 K	2.22	31.6
323.15 K	2.85	23.5
328.15 K	–	20.5
333.15 K	–	18.1
338.15 K	–	16
343.15 K	–	14.3
348.15 K	–	12.8

CC[N+](CC)(CC)CC.O=[N+]([O-])[O-] + CC[NH3+].O=[N+]([O-])[O-]
Conditions	electrical conductivity [S/m]	viscosity [mPa·s]
293.15 K, x1 = 0.0501	1.56	50.7
293.15 K, x1 = 0.1	1.27	60.1
293.15 K, x1 = 0.2001	0.797	91.6
293.15 K, x1 = 0.2567	0.623	122
293.15 K, x1 = 0.2995	0.392	144
293.15 K, x1 = 0.35	0.359	211
298.15 K, x1 = 0.0501	1.83	42.2
298.15 K, x1 = 0.1	1.5	49.6
298.15 K, x1 = 0.15	1.21	60.4
298.15 K, x1 = 0.2001	0.96	74
298.15 K, x1 = 0.2567	0.762	96.9
298.15 K, x1 = 0.2995	–	114
298.15 K, x1 = 0.35	0.462	167
303.15 K, x1 = 0.1	1.76	41.4
303.15 K, x1 = 0.2001	1.14	60.7
303.15 K, x1 = 0.2567	0.912	78.3
303.15 K, x1 = 0.2995	0.594	91.3
308.15 K, x1 = 0.0501	2.44	30.3
308.15 K, x1 = 0.1	2.03	35.5
308.15 K, x1 = 0.15	1.65	41.9
308.15 K, x1 = 0.2567	1.08	64.1
308.15 K, x1 = 0.2995	0.715	74.2
308.15 K, x1 = 0.35	0.671	104
313.15 K, x1 = 0.0501	2.78	26
313.15 K, x1 = 0.15	1.91	35.6
313.15 K, x1 = 0.2001	1.56	42.4
313.15 K, x1 = 0.2567	1.26	53.4
313.15 K, x1 = 0.2995	0.848	61.3
313.15 K, x1 = 0.35	0.804	85.4
318.15 K, x1 = 0.0501	3.14	22.5
318.15 K, x1 = 0.1	2.65	26.1
318.15 K, x1 = 0.15	2.17	30.4
318.15 K, x1 = 0.2001	1.79	35.9
318.15 K, x1 = 0.2567	1.46	44.7
318.15 K, x1 = 0.35	0.948	69.4
323.15 K, x1 = 0.0501	3.52	19.7
323.15 K, x1 = 0.1	2.99	22.7
323.15 K, x1 = 0.2001	2.04	30.7
323.15 K, x1 = 0.2567	1.68	37.9
323.15 K, x1 = 0.2995	1.22	42.8
323.15 K, x1 = 0.35	1.11	57.6
328.15 K, x1 = 0.0501	–	17.3
328.15 K, x1 = 0.1	–	19.9
328.15 K, x1 = 0.15	–	22.8
328.15 K, x1 = 0.2995	–	36.4
333.15 K, x1 = 0.0501	–	15.3
333.15 K, x1 = 0.1	–	17.5
333.15 K, x1 = 0.2001	–	23.2
333.15 K, x1 = 0.2567	–	28.1
333.15 K, x1 = 0.2995	–	31.3
333.15 K, x1 = 0.35	–	41.5
338.15 K, x1 = 0.0501	–	13.7
338.15 K, x1 = 0.1	–	15.5
338.15 K, x1 = 0.15	–	17.7
338.15 K, x1 = 0.2001	–	20.3
338.15 K, x1 = 0.2567	–	24.3
338.15 K, x1 = 0.2995	–	27
338.15 K, x1 = 0.35	–	35.1
343.15 K, x1 = 0.0501	–	12.3
343.15 K, x1 = 0.1	–	13.6
343.15 K, x1 = 0.2001	–	18
343.15 K, x1 = 0.2567	–	21.4
343.15 K, x1 = 0.2995	–	23.6
343.15 K, x1 = 0.35	–	30.2
348.15 K, x1 = 0.0501	–	11.1
348.15 K, x1 = 0.1	–	12.2
348.15 K, x1 = 0.15	–	14.1
348.15 K, x1 = 0.2567	–	18.9
348.15 K, x1 = 0.2995	–	20.7
353.15 K, x1 = 0.0501	–	10
353.15 K, x1 = 0.15	–	12.7
353.15 K, x1 = 0.2001	–	14.4
353.15 K, x1 = 0.2567	–	16.9
353.15 K, x1 = 0.2995	–	18.4
